Data as given in patent US10213433B2 (AbbVie Inc., priority 2010, dated 2019).

What follows are molecules tested against Bcl-2 protein (Homo sapiens (Human), UniProt P10415) (assay: Bcl-2 binding TR-FRET (Time-Resolved Fluorescence-Resonance-Energy-Transfer) assay). Conditions: inhibition constant for binding to Bcl-2 protein.
Sequence of Bcl-2 protein (P10415 whole entry): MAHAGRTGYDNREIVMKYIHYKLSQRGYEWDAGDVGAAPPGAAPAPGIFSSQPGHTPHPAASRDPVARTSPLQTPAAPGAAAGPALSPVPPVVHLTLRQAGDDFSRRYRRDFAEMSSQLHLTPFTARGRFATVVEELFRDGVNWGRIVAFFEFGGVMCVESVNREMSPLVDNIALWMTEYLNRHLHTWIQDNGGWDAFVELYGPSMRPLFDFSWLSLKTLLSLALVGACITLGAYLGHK
Source text: The smaller the Ki value, the greater is the binding affinity.
Work on `CC1(C)CCC(CN2CCN(c3ccc(C(=O)NS(=O)(=O)c4ccc(NCC5CCN(C6CC6)CC5)c([N+](=O)[O-])c4)c(Oc4cnc5[nH]ccc5c4)c3)CC2)=C(c2ccc(Cl)cc2)C1` [Compound 164, 4-(4-{[2-(4-chlorophenyl)-4,4-dimethylcyclohex-1-en-1-yl]methyl}piperazin-1-yl)-N-[(4-{[(1-cyclopropylpiperidin-4-yl)methyl]amino}-3-nitrophenyl)sulfonyl]-2-(1H-pyrrolo[2,3-b]pyridin-5-yloxy)benzamide] yielded a Ki of under 0.01 nM.
Molecule `CC1(C)CCC(CN2CCN(c3ccc(C(=O)NS(=O)(=O)c4ccc(NCC5CN(CCF)CCO5)c([N+](=O)[O-])c4)c(Oc4cnc5[nH]ccc5c4)c3)CC2)=C(c2ccc(Cl)cc2)C1` (stereo not drawn) [Compound 165, 4-(4-{[2-(4-chlorophenyl)-4,4-dimethylcyclohex-1-en-1-yl]methyl}piperazin-1-yl)-N-{[4-({[4-(2-fluoroethyl)morpholin-2-yl]methyl}amino)-3-nitrophenyl]sulfonyl}-2-(1H-pyrrolo[2,3-b]pyridin-5-yloxy)benzamide] has a Ki of under 0.01 nM.
In the case of `CC1(C)CCC(CN2CCN(c3ccc(C(=O)NS(=O)(=O)c4ccc(NCC5CN(CC(F)F)CCO5)c([N+](=O)[O-])c4)c(Oc4cnc5[nH]ccc5c4)c3)CC2)=C(c2ccc(Cl)cc2)C1` (stereo not drawn) [Compound 166, 4-(4-{[2-(4-chlorophenyl)-4,4-dimethylcyclohex-1-en-1-yl]methyl}piperazin-1-yl)-N-{[4-({[4-(2,2-difluoroethyl)morpholin-2-yl]methyl}amino)-3-nitrophenyl]sulfonyl}-2-(1H-pyrrolo[2,3-b]pyridin-5-yloxy)benzamide], the Ki is reported as under 0.01 nM.
For `CC1(C)CCC(CN2CCN(c3ccc(C(=O)NS(=O)(=O)c4ccc(OCC5(F)CCN(C6COC6)CC5)c([N+](=O)[O-])c4)c(Oc4cnc5[nH]ccc5c4)c3)CC2)=C(c2ccc(Cl)cc2)C1` [Compound 167, 4-(4-{[2-(4-chlorophenyl)-4,4-dimethylcyclohex-1-en-1-yl]methyl}piperazin-1-yl)-N-({4-[(4-fluoro-1-oxetan-3-ylpiperidin-4-yl)methoxy]-3-nitrophenyl}sulfonyl)-2-(1H-pyrrolo[2,3-b]pyridin-5-yloxy)benzamide], the Ki was under 0.01 nM.
Molecule `CC1(C)CCC(CN2CCN(c3ccc(C(=O)NS(=O)(=O)c4ccc(OC[C@@H]5CC(F)(F)CN5C5COC5)c([N+](=O)[O-])c4)c(Oc4cnc5[nH]ccc5c4)c3)CC2)=C(c2ccc(Cl)cc2)C1` [Compound 168, 4-(4-{[2-(4-chlorophenyl)-4,4-dimethylcyclohex-1-en-1-yl]methyl}piperazin-1-yl)-N-[(4-{[(2S)-4,4-difluoro-1-oxetan-3-ylpyrrolidin-2-yl]methoxy}-3-nitrophenyl)sulfonyl]-2-(1H-pyrrolo[2,3-b]pyridin-5-yloxy)benzamide] has a Ki of under 0.01 nM.
Work on `CC1(C)CCC(CN2CCN(c3ccc(C(=O)NS(=O)(=O)c4ccc(NCC5COCCN5C5CCOC5)c([N+](=O)[O-])c4)c(Oc4cnc5[nH]ccc5c4)c3)CC2)=C(c2ccc(Cl)cc2)C1` (stereo not drawn) [Compound 171, 4-(4-{[2-(4-chlorophenyl)-4,4-dimethylcyclohex-1-en-1-yl]methyl}piperazin-1-yl)-N-[(3-nitro-4-{[(4-tetrahydrofuran-3-ylmorpholin-3-yl)methyl]amino}phenyl)sulfonyl]-2-(1H-pyrrolo[2,3-b]pyridin-5-yloxy)benzamide] yielded a Ki of under 0.01 nM.
For `CC1(C)CCC(CN2CCN(c3ccc(C(=O)NS(=O)(=O)c4ccc(NCC5CCN(C(CF)CF)CC5)c([N+](=O)[O-])c4)c(Oc4cnc5[nH]ccc5c4)c3)CC2)=C(c2ccc(Cl)cc2)C1` [Compound 172, 4-(4-{[2-(4-chlorophenyl)-4,4-dimethylcyclohex-1-en-1-yl]methyl}piperazin-1-yl)-N-({4-[({1-[2-fluoro-1-(fluoromethyl)ethyl]piperidin-4-yl}methyl)amino]-3-nitrophenyl}sulfonyl)-2-(1H-pyrrolo[2,3-b]pyridin-5-yloxy)benzamide], the Ki was under 0.01 nM.
With `CC1(C)CCC(CN2CCN(c3ccc(C(=O)NS(=O)(=O)c4ccc(OCC5(F)CCN(C6CC6)CC5)c([N+](=O)[O-])c4)c(Oc4cnc5[nH]ccc5c4)c3)CC2)=C(c2ccc(Cl)cc2)C1` [Compound 173, 4-(4-{[2-(4-chlorophenyl)-4,4-dimethylcyclohex-1-en-1-yl]methyl}piperazin-1-yl)-N-({4-[(1-cyclopropyl-4-fluoropiperidin-4-yl)methoxy]-3-nitrophenyl}sulfonyl)-2-(1H-pyrrolo[2,3-b]pyridin-5-yloxy)benzamide] the Ki was under 0.01 nM.
Molecule `COc1ccc(CNc2ccc(S(=O)(=O)NC(=O)c3ccc(N4CCN(CC5=C(c6ccc(Cl)cc6)CC(C)(C)CC5)CC4)cc3Oc3cnc4[nH]ccc4c3)cc2[N+](=O)[O-])cc1` [Compound 174, 4-(4-{[2-(4-chlorophenyl)-4,4-dimethylcyclohex-1-en-1-yl]methyl}piperazin-1-yl)-N-({4-[(4-methoxybenzyl)amino]-3-nitrophenyl}sulfonyl)-2-(1H-pyrrolo[2,3-b]pyridin-5-yloxy)benzamide] has a Ki of under 0.01 nM.
`CC1(C)CCC(CN2CCN(c3ccc(C(=O)NS(=O)(=O)c4ccc(N[C@@H]5CCN(CC(F)F)C5)c([N+](=O)[O-])c4)c(Oc4cnc5[nH]ccc5c4)c3)CC2)=C(c2ccc(Cl)cc2)C1` [Compound 180, 4-(4-{[2-(4-chlorophenyl)-4,4-dimethylcyclohex-1-en-1-yl]methyl}piperazin-1-yl)-N-[(4-{[(3R)-1-(2,2-difluoroethyl)pyrrolidin-3-yl]amino}-3-nitrophenyl)sulfonyl]-2-(1H-pyrrolo[2,3-b]pyridin-5-yloxy)benzamide] showed a Ki of under 0.01 nM.
`CC1(C)CCC(CN2CCN(c3ccc(C(=O)NS(=O)(=O)c4ccc(N[C@H]5CCN(CC(F)F)C5)c([N+](=O)[O-])c4)c(Oc4cnc5[nH]ccc5c4)c3)CC2)=C(c2ccc(Cl)cc2)C1` [Compound 182, 4-(4-{[2-(4-chlorophenyl)-4,4-dimethylcyclohex-1-en-1-yl]methyl}piperazin-1-yl)-N-[(4-{[(3S)-1-(2,2-difluoroethyl)pyrrolidin-3-yl]amino}-3-nitrophenyl)sulfonyll]-2-(1H-pyrrolo[2,3-b]pyridin-5-yloxy)benzamide] was tested, and the Ki was 0.068 nM.
`CC1(C)CCC(CN2CCN(c3ccc(C(=O)NS(=O)(=O)c4ccc(N[C@@H]5CCN(CCF)C5)c([N+](=O)[O-])c4)c(Oc4cnc5[nH]ccc5c4)c3)CC2)=C(c2ccc(Cl)cc2)C1` [Compound 183, 4-(4-{[2-(4-chlorophenyl)-4,4-dimethylcyclohex-1-en-1-yl]methyl}piperazin-1-yl)-N-[(4-{[(3R)-1-(2-fluoroethyl)pyrrolidin-3-yl]amino}-3-nitrophenyl)sulfonyl]-2-(1H-pyrrolo[2,b]pyridin-5-yloxy)benzamide] showed a Ki of under 0.01 nM.
`CC1(C)CCC(CN2CCN(c3ccc(C(=O)NS(=O)(=O)c4ccc(OC[C@H]5CCN(C6COC6)C5)c([N+](=O)[O-])c4)c(Oc4cnc5[nH]ccc5c4)c3)CC2)=C(c2ccc(Cl)cc2)C1` [Compound 184, 4-(4-{[2-(4-chlorophenyl)-4,4-dimethylcyclohex-1-en-1-yl]methyl}piperazin-1-yl)-N-[(3-nitro-4-{[(3S)-1-oxetan-3-ylpyrrolidin-3-yl]methoxy}phenyl)sulfonyl]-2-(1H-pyrrolo[2,3-b]pyridin-5-yloxy)benzamide] was tested, and the Ki was under 0.01 nM.
With `CC1(C)CCC(CN2CCN(c3ccc(C(=O)NS(=O)(=O)c4ccc(OCC5CCN(C6COC6)CC5)c([N+](=O)[O-])c4)c(Oc4cnc5[nH]ccc5c4)c3)CC2)=C(c2ccc(Cl)cc2)C1` [Compound 191, 4-(4-{[2-(4-chlorophenyl)-4,4-dimethylcyclohex-1-en-1-yl]methyl}piperazin-1-yl)-N-({3-nitro-4-[(1-oxetan-3-ylpiperidin-4-yl)methoxy]phenyl}sulfonyl)-2-(1H-pyrrolo[2,3-b]pyridin-5-yloxy)benzamide] the Ki was under 0.01 nM.
`CC1(C)CCC(CN2CCN(c3ccc(C(=O)NS(=O)(=O)c4ccc(OCC5(F)CCN(C6CCOCC6)CC5)c([N+](=O)[O-])c4)c(Oc4cnc5[nH]ccc5c4)c3)CC2)=C(c2ccc(Cl)cc2)C1` [Compound 192, 4-(4-{[2-(4-chlorophenyl)-4,4-dimethylcyclohex-1-en-1-yl]methyl}piperazin-1-yl)-N-({4-[(4-fluoro-1-tetrahydro-2H-pyran-4-ylpiperidin-4-yl)methoxy]-3-nitrophenyl}sulfonyl)-2-(1H-pyrrolo[2,3-b]pyridin-5-yloxy)benzamide] was tested, and the Ki was under 0.01 nM.
Molecule `CC1(C)CCC(CN2CCN(c3ccc(C(=O)NS(=O)(=O)c4ccc(OCC5(F)CCN(C6CCOC6)CC5)c([N+](=O)[O-])c4)c(Oc4cnc5[nH]ccc5c4)c3)CC2)=C(c2ccc(Cl)cc2)C1` (stereo not drawn) [Compound 193, 4-(4-{[2-(4-chlorophenyl)-4,4-dimethylcyclohex-1-en-1-yl]methyl}piperazin-1-yl)-N-({4-[(4-fluoro-1-tetrahydrofuran-3-ylpiperidin-4-yl)methoxy]-3-nitrophenyl}sulfonyl)-2-(1H-pyrrolo[2,3-b]pyridin-5-yloxy)benzamide] has a Ki of under 0.01 nM.
`CC1(C)CCC(CN2CCN(c3ccc(C(=O)NS(=O)(=O)c4ccc(OCC5(F)CCN(S(C)(=O)=O)CC5)c([N+](=O)[O-])c4)c(Oc4cnc5[nH]ccc5c4)c3)CC2)=C(c2ccc(Cl)cc2)C1` [Compound 194, 4-(4-{[2-(4-chlorophenyl)-4,4-dimethylcyclohex-1-en-1-yl]methyl}piperazin-1-yl)-N-[(4-{[4-fluoro-1-(methylsulfonyl)piperidin-4-yl]methoxy}-3-nitrophenyl)sulfonyl]-2-(1H-pyrrolo[2,3-b]pyridin-5-yloxy)benzamide] showed a Ki of under 0.01 nM.
`CC1(C)CCC(CN2CCN(c3ccc(C(=O)NS(=O)(=O)c4ccc(NC[C@H]5CCN(C6COC6)C5)c([N+](=O)[O-])c4)c(Oc4cnc5[nH]ccc5c4)c3)CC2)=C(c2ccc(Cl)cc2)C1` [Compound 195, 4-(4-{[2-(4-chlorophenyl)-4,4-dimethylcyclohex-1-en-1-yl]methyl}piperazin-1-yl)-N-{[3-nitro-4-({[(3R)-1-oxetan-3-ylpyrrolidin-3-yl]methyl}amino)phenyl]sulfonyl}-2-(1H-pyrrolo[2,3-b]pyridin-5-yloxy)benzamide] gave a Ki of under 0.01 nM.
